Target: T1, AsPC-1 HiBiT-KRASG12D (Homo sapiens, UniProt P01116, G12D)
T1 construct: insert the HiBiT tag onto the N-terminus of one or more of the endogenous KRAS alleles; endogenous in cells; host or cells: AsPC-1 (ATCC CRL-1682), CRISPR-Cas9 knock-in clone, one tagged allele
Assay: HiBiT degradation assay (G12D), AsPC-1 HiBiT-KRASG12D cells
Assay type: cell-based
Details: 24 hours treatment; for Dmax: ASPC1, AsPC-1 HiBiT-KRASG12D cells, maximum degradation observed; for DC50: AsPC-1 HiBiT-KRASG12D cells, HiBiT luminescence
How it was run: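 Endogenous KRASG12D levels were measured via an N-terminal HiBiT tag knocked into AsPC-1 cells. Cells received compound titrations for 24 hours, and HiBiT luminescence was detected after a 45-minute lytic reagent incubation at room temperature.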

T1 sequence (P01116 1-188 isoform P01116-2 G12D): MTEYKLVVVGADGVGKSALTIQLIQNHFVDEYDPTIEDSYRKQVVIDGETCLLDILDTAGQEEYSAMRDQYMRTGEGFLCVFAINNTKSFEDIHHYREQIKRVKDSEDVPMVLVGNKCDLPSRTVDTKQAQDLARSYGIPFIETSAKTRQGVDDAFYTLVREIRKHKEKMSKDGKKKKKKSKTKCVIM

Structure (SMILES) | Dmax [%] | DC50 [nM]
CCc1cccc2cc(O)cc(-c3ncc4c(N5CC6CCC(C5)N6)nc(OCCN5CCC(O)(CC6CCN(c7cc([C@H](C(=O)N8C[C@H](O)C[C@H]8C(=O)N[C@@H](C)c8ccc(-c9scnc9C)cc8)C(C)C)on7)CC6)CC5)nc4c3F)c12 [Compound 204, (2S,4R)-1-[(2R)-2-(3-{4-[(1-{2-[(4-{3,8-diazabicyclo[3.2.1]octan-3-yl}-7-(8-ethyl-3-hydroxynaphthalen-1-yl)-8-fluoropyrido[4,3-d]pyrimidin-2-yl)oxy]ethyl}-4-hydroxypiperidin-4-yl)methyl]piperidin-1-yl}-1,2-oxazol-5-yl)-3-methylbutanoyl]-4-hydroxy-N-[(1S)-1-[4-(4-methyl-1,3-thiazol-5-yl)phenyl]ethyl]pyrrolidine-2-carboxamide] | 80 to 100 | < 600
CCc1cccc2cc(O)cc(-c3ncc4c(N5CC6CCC(C5)N6)nc(OCCN5CCC(O)(CC6CCN(c7cc([C@@H](C(=O)N8C[C@H](O)C[C@H]8C(=O)N[C@@H](C)c8ccc(-c9scnc9C)cc8)C(C)C)on7)CC6)CC5)nc4c3F)c12 [Compound 205, (2S,4R)-1-[(2S)-2-(3-{4-[(1-{2-[(4-{3,8-diazabicyclo[3.2.1]octan-3-yl}-7-(8-ethyl-3-hydroxynaphthalen-1-yl)-8-fluoropyrido[4,3-d]pyrimidin-2-yl)oxy]ethyl}-4-hydroxypiperidin-4-yl)methyl]piperidin-1-yl}-1,2-oxazol-5-yl)-3-methylbutanoyl]-4-hydroxy-N-[(1S)-1-[4-(4-methyl-1,3-thiazol-5-yl)phenyl]ethyl]pyrrolidine-2-carboxamide] | 20 to 60 | 1000 to 3000
C#Cc1c(F)ccc2cc(O)cc(-c3ncc4c(N5CC6CCC(C5)N6)nc(OCCN5CCC(CN6CCN(c7cc([C@H](C(=O)N8C[C@H](O)C[C@H]8C(=O)N[C@@H](C)c8ccc(-c9scnc9C)cc8)C(C)C)on7)CC6)CC5)nc4c3F)c12 [Compound 206, (2S,4R)-1-[(2R)-2-(3-{4-[(1-{2-[(4-{3,8-diazabicyclo[3.2.1]octan-3-yl}-7-(8-ethynyl-7-fluoro-3-hydroxynaphthalen-1-yl)-8-fluoropyrido[4,3-d]pyrimidin-2-yl)oxy]ethyl}piperidin-4-yl)methyl]piperazin-1-yl}-1,2-oxazol-5-yl)-3-methylbutanoyl]-4-hydroxy-N-[(1S)-1-[4-(4-methyl-1,3-thiazol-5-yl)phenyl]ethyl]pyrrolidine-2-carboxamide] | 80 to 100 | < 600
CCc1cccc2cc(O)cc(-c3ncc4c(N5CCCCCC5)nc(OC[C@]56CCCN5[C@H](COc5cc([C@@H](C(=O)N7C[C@H](O)C[C@H]7C(=O)N[C@@H](C)c7ccc(-c8scnc8C)cc7)C(C)C)on5)CC6)nc4c3F)c12 [Compound 207, (2S,4R)-1-[(2S)-2-(3-{[(3S,7aR)-7a-({[4-(azepan-1-yl)-7-(8-ethyl-3-hydroxynaphthalen-1-yl)-8-fluoropyrido[4,3-d]pyrimidin-2-yl]oxy}methyl)-hexahydro-1H-pyrrolizin-3-yl]methoxy}-1,2-oxazol-5-yl)-3-methylbutanoyl]-4-hydroxy-N-[(1S)-1-[4-(4-methyl-1,3-thiazol-5-yl)phenyl]ethyl]pyrrolidine-2-carboxamide] | – | > 3000
CCc1cccc2cc(O)cc(-c3ncc4c(N5CCCCCC5)nc(OC[C@]56CCCN5[C@H](COc5cc([C@H](C(=O)N7C[C@H](O)C[C@H]7C(=O)N[C@@H](C)c7ccc(-c8scnc8C)cc7)C(C)C)on5)CC6)nc4c3F)c12 [Compound 208, (2S,4R)-1-[(2R)-2-(3-{[(3S,7aR)-7a-({[4-(azepan-1-yl)-7-(8-ethyl-3-hydroxynaphthalen-1-yl)-8-fluoropyrido[4,3-d]pyrimidin-2-yl]oxy}methyl)-hexahydro-1H-pyrrolizin-3-yl]methoxy}-1,2-oxazol-5-yl)-3-methylbutanoyl]-4-hydroxy-N-[(1S)-1-[4-(4-methyl-1,3-thiazol-5-yl)phenyl]ethyl]pyrrolidine-2-carboxamide] | 80 to 100 | < 600
CCc1cccc2cc(O)cc(-c3ncc4c(N5CC6CCC(C5)N6)nc(OCCN5CCC(F)(CN6CCN(c7cc([C@H](C(=O)N8C[C@H](O)C[C@H]8C(=O)N[C@@H](C)c8ccc(-c9scnc9C)cc8)C(C)C)on7)[C@@H](C)C6)CC5)nc4c3F)c12 [Compound 209, (2S,4R)-1-[(2R)-2-{3-[(2S)-4-[(1-{2-[(4-{3,8-diazabicyclo[3.2.1]octan-3-yl}-7-(8-ethyl-3-hydroxynaphthalen-1-yl)-8-fluoropyrido[4,3-d]pyrimidin-2-yl)oxy]ethyl}-4-fluoropiperidin-4-yl)methyl]-2-methylpiperazin-1-yl]-1,2-oxazol-5-yl}-3-methylbutanoyl]-4-hydroxy-N-[(1S)-1-[4-(4-methyl-1,3-thiazol-5-yl)phenyl]ethyl]pyrrolidine-2-carboxamide] | 80 to 100 | < 600
CCc1cccc2cc(O)cc(-c3ncc4c(N5CC6CCC(C5)N6)nc(OCCN5CCC(CC6CCN(c7cc([C@@H](C(=O)N8C[C@H](O)C[C@H]8C(=O)N[C@@H](C)c8ccc(-c9ccnn9C)cc8)C(C)C)on7)CC6)CC5)nc4c3F)c12 [Compound 210, (2S,4R)-1-[(2S)-2-(3-{4-[(1-{2-[(4-{3,8-diazabicyclo[3.2.1]octan-3-yl}-7-(8-ethyl-3-hydroxynaphthalen-1-yl)-8-fluoropyrido[4,3-d]pyrimidin-2-yl)oxy]ethyl}piperidin-4-yl)methyl]piperidin-1-yl}-1,2-oxazol-5-yl)-3-methylbutanoyl]-4-hydroxy-N-[(1S)-1-[4-(1-methyl-1H-pyrazol-5-yl)phenyl]ethyl]pyrrolidine-2-carboxamide] | 20 to 60 | 600 to 1000
CCc1cccc2cc(O)cc(-c3ncc4c(N5CC6CCC(C5)N6)nc(OCCN5CCC(CN6CCN(c7cc([C@H](C(=O)N8C[C@H](O)C[C@H]8C(=O)N[C@@H](C)c8ccc(-c9scnc9C)cc8)C(C)C)on7)CC6)CC5)nc4c3F)c12 [Compound 211, (2S,4R)-1-[(2R)-2-(3-{4-[(1-{2-[(4-{3,8-diazabicyclo[3.2.1]octan-3-yl}-7-(8-ethyl-3-hydroxynaphthalen-1-yl)-8-fluoropyrido[4,3-d]pyrimidin-2-yl)oxy]ethyl}piperidin-4-yl)methyl]piperazin-1-yl}-1,2-oxazol-5-yl)-3-methylbutanoyl]-4-hydroxy-N-[(1S)-1-[4-(4-methyl-1,3-thiazol-5-yl)phenyl]ethyl] pyrrolidine-2-carboxamide] | 80 to 100 | < 600
CCc1cccc2cc(O)cc(-c3ncc4c(N5CC6CCC(C5)N6)nc(OCCN5CCC(CC6CN(c7cc([C@H](C(=O)N8C[C@H](O)C[C@H]8C(=O)N[C@@H](C)c8ccc(-c9ccnn9C)cc8)C(C)C)on7)C6)CC5)nc4c3F)c12 [Compound 212, (2S,4R)-1-[(2R)-2-(3-{3-[(1-{2-[(4-{3,8-diazabicyclo[3.2.1]octan-3-yl}-7-(8-ethyl-3-hydroxynaphthalen-1-yl)-8-fluoropyrido[4,3-d]pyrimidin-2-yl)oxy]ethyl}piperidin-4-yl)methyl]azetidin-1-yl}-1,2-oxazol-5-yl)-3-methylbutanoyl]-4-hydroxy-N-[(1S)-1-[4-(1-methyl-1H-pyrazol-5-yl)phenyl]ethyl]pyrrolidine-2-carboxamide] | 80 to 100 | < 600
CCc1cccc2cc(O)cc(-c3ncc4c(N5CC6CCC(C5)N6)nc(OC[C@@H]5CC[C@@H](COC(=O)N6CC7(C6)CN(c6cc([C@H](C(=O)N8C[C@H](O)C[C@H]8C(=O)N[C@@H](C)c8ccc(-c9scnc9C)cc8)C(C)C)on6)C7)N5C)nc4c3F)c12 [Compound 213, [(2S,5S)-5-{[(4-{3,8-diazabicyclo[3.2.1]octan-3-yl}-7-(8-ethyl-3-hydroxynaphthalen-1-yl)-8-fluoropyrido[4,3-d]pyrimidin-2-yl)oxy]methyl}-1-methylpyrrolidin-2-yl]methyl 6-{5-[(2R)-1-[(2S,4R)-4-hydroxy-2-{[(1S)-1-[4-(4-methyl-1,3-thiazol-5-yl)phenyl]ethyl]carbamoyl}pyrrolidin-1-yl]-3-methyl-1-oxobutan-2-yl]-1,2-oxazol-3-yl}-2,6-diazaspiro[3.3]heptane-2-carboxylate] | 80 to 100 | < 600
CCc1cccc2cc(O)cc(-c3ncc4c(N5CC6CCC(C5)N6)nc(OCCN5CCC(F)(CN6CCN(c7cc([C@H](C(=O)N8C[C@H](O)C[C@H]8C(=O)N[C@@H](C)c8ccc(-c9scnc9C)cc8)C(C)C)on7)C[C@@H]6C)CC5)nc4c3F)c12 [Compound 214, (2S,4R)-1-[(2R)-2-{3-[(3S)-4-[(1-{2-[(4-{3,8-diazabicyclo[3.2.1]octan-3-yl}-7-(8-ethyl-3-hydroxynaphthalen-1-yl)-8-fluoropyrido[4,3-d]pyrimidin-2-yl)oxy]ethyl}-4-fluoropiperidin-4-yl)methyl]-3-methylpiperazin-1-yl]-1,2-oxazol-5-yl}-3-methylbutanoyl]-4-hydroxy-N-[(1S)-1-[4-(4-methyl-1,3-thiazol-5-yl)phenyl]ethyl]pyrrolidine-2-carboxamide] | 80 to 100 | < 600
CCc1cccc2cc(O)cc(-c3ncc4c(N5CC6CCC(C5)N6)nc(OCCN5CCC(OC6CN(c7cc([C@H](C(=O)N8C[C@H](O)C[C@H]8C(=O)N[C@@H](C)c8ccc(-c9scnc9C)cc8)C(C)C)on7)C6)CC5)nc4c3F)c12 [Compound 215, (2S,4R)-1-[(2R)-2-(3-{3-[(1-{2-[(4-{3,8-diazabicyclo[3.2.1]octan-3-yl}-7-(8-ethyl-3-hydroxynaphthalen-1-yl)-8-fluoropyrido[4,3-d]pyrimidin-2-yl)oxy]ethyl}piperidin-4-yl)oxy]azetidin-1-yl}-1,2-oxazol-5-yl)-3-methylbutanoyl]-4-hydroxy-N-[(1S)-1-[4-(4-methyl-1,3-thiazol-5-yl)phenyl]ethyl]pyrrolidine-2-carboxamide] | 80 to 100 | < 600
